{"source": "patent US20040067531A1", "about": "“Methods of modulating protein tyrosine kinase function with substituted indolinone compounds” (SUGEN, INC., priority 1997, published 2004)", "key": {"EGFR protein": {"target": "T1, EGFR protein (Homo sapiens, UniProt P00533)", "T1 construct": "A431 cell lysate; endogenous in cells; host or cells: A431", "T1 sequence (P00533 25-1210)": "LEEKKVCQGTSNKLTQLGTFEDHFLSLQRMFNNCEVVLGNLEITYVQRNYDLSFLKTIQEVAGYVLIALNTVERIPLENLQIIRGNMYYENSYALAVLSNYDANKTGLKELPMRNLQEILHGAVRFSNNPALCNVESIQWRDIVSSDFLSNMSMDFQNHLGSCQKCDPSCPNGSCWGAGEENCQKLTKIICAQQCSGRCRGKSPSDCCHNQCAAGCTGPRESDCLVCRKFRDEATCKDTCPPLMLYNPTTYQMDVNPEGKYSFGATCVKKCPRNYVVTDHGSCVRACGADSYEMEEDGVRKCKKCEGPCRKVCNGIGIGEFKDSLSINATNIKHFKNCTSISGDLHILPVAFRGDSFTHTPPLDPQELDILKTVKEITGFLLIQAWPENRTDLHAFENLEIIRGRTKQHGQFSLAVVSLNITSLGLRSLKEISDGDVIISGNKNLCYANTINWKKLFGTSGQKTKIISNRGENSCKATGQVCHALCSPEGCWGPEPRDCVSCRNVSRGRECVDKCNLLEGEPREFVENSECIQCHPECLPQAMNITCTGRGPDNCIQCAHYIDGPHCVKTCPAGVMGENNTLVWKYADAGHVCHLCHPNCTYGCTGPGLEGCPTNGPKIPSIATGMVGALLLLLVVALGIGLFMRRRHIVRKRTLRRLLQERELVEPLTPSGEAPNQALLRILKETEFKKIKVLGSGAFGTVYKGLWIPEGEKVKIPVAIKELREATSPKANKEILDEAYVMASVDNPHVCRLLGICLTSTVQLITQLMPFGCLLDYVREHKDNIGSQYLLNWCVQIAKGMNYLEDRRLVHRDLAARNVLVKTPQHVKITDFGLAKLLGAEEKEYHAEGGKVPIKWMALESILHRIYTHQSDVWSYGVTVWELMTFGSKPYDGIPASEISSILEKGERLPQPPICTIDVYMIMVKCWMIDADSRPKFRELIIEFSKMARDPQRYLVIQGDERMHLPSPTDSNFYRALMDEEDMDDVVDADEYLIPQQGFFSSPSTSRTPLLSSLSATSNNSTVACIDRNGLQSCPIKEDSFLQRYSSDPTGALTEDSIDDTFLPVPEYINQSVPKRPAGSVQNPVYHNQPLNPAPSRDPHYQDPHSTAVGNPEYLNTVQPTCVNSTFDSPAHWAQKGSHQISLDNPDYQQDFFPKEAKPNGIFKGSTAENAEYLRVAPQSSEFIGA", "assay": "ELISA assay measuring the kinase activity of the EGF receptor (EGFR captured from A431 cell lysate)", "type": "biochemical", "protocol": "The following protocol describes the reagents and procedures used to analyze protein tyrosine kinase activity on the EGFR protein.\nAll of the following steps are conducted at room temperature unless it is specifically indicated. All ELISA plate washing is by rinsing 4× with TBST.\n1. Coat Corning 96 well ELISA plates with 0.5 μg/well of SUMO1 in a volume of 100 μL PBS. Store overnight at 4° C.\n2. Remove unbound SUMO1 by inverting plate to remove liquid. Wash plates with distilled water. Pat plate on a paper towel to remove excess liquid and bubbles\n3. Add 150 μL of Blocking Buffer to each well. Incubate while shaking on a microliter plate shaker at room temperature for 30 min.\n4. Wash 3× with deionized water, then once with TBST. Pat plate on a paper towel to remove excess liquid and bubbles.\n5. Dilute lysate in PBS (7 μg of lysate/100 μL of PBS).\n6. Add 100 μL of diluted lysate to each well. Shake at room temperature for 60 min.\n7. Wash as described in step 4.\n8. Add 120 μL TBS to ELISA plate containing captured EGFR.\n9. Dilute drugs/extracts 1:10 (unless specified otherwise) in TBS in 96-well polypropylene plates.\n10. Add 13.5 μL diluted drugs/extracts to ELISA plate.\n11. Incubate for 30 minutes while shaking at room temperture.\n12. […] Incubate while shaking on a micro-liter plate shaker at room temperature for 5 min.\n13. Stop Kinase reaction with the addition of 16.5 μL of 200 mM EDTA pH 8.0 to all wells.\n14. Wash 4× with deionized water and twice with TBST.\n15. Add 100 μL per well of anti-phosphotyrosine (1:3000 dilution in TBST). Incubate while shaking on a micro-liter plate shaker 30-45 minutes at room temperature while shaking.\n16. Wash as described in step 4.\n17. Add 100 μL per well of biosource Goat anti-rabbit IgG peroxidase conjugate (1:2000 dilution in TBST). Incubate 30 min. at room temerature while shaking.\n18. Wash as described in step 4.\n19. Add 100 μL of ABTS/H2O2 solution to each well.\n20. Incubate 5 to 15 minutes while shaking. Remove any bubbles.\n21. If necessary stop reaction with the addition of 10 μL of 0.2 M HCl/well.\n22. Read assay on Dynatech MR7000 ELISA Plate Reader.\nThe IC50 values were measured for several of the compounds of the invention."}, "[1]": {"test_system": "3T3 cell line genetically engineered to express human PDGF-R", "assay": "PDGF-induced BrdU incorporation assay", "type": "cell-based", "conditions": "3T3 cells expressing human PDGF-R, read-out: PDGF-Induced BrdU Incorp. IC50", "protocol": "(1) PDGF: human PDGF B/B; 1276-956, Boehringer Mannheim, Germany\n(8) 3T3 cell line genetically engineered to express human PDGF-R.\n1. Cells were seeded at 8000 cells/well in DMEM, 10% CS, 2 mM Gln in a 96 well plate. Cells were incubated overnight at 37° C. in 5% CO2.\n2. After 24 hours, the cells were washed with PBS, and then were serum starved in serum free medium (0% CS DMEM with 0.1% BSA) for 24 hours.\n3. On day 3, ligand (PDGF=3.8 nM, prepared in DMEM with 0.1% BSA) and test compounds were added to the cells simultaneously. The negative control wells received serum free DMEM with 0.1% BSA only; the positive control cells received the ligand (PDGF) but no test compound. Test compounds were prepared in serum free DMEM with ligand in a 96 well plate, and serially diluted for 7 test concentrations.\n4. After 20 hours of ligand activation, diluted BrdU labeling reagent (1:100 in DMEM, 0.1% BSA) was added and the cells were incubated with BrdU (final concentration=10 μM) for 1.5 hours.\n5. After incubation with labeling reagent, the medium was removed by decanting and tapping the inverted plate on a paper towel. FixDenat solution was added (50 μL/well) and the plates were incubated at room temperature for 45 minutes on a plate shaker.\n6. The FixDenat solution was thoroughly removed by decanting and tapping the inverted plate on a paper towel. Milk was added (5% dehydrated milk in PBS, 200 μL/well) as a blocking solution and the plate was incubated for 30 minutes at room temperature on a plate shaker.\n7. The blocking solution was removed by decanting and the wells were washed once with PBS. Anti-BrdU-POD solution (1:100 dilution in PBS, 1% BSA) was added (100 μL/well), and the plate was incubated for 90 minutes at room temperature on a plate shaker.\n8. The antibody conjugate was thoroughly removed by decanting and rinsing the wells 5 times with PBS, and the space was dried by inverting and tapping on a paper towel.\n9. TMB substrate solution was added (100 μL/well) and incubated for 20 minutes at room temperature on a plate shaker until color development was sufficient for photometric detection.\n10. The absorbance of the samples were measured at 410 nm (in “dual wavelength” mode with a filter reading at 490 nm, as a reference wavelength) on a Dynatech ELISA plate reader.\nThe IC50 values were measured for several of the compounds of the invention. These values are depicted in Table 10."}}, "note": "pIC50: −log10 of the molar value. Read-outs that look alike come from different tables or passages of the source."}
{"molecule": "Cc1c[nH]c(C=C2C(=O)Nc3cc(Cl)ccc32)c1CCC(=O)O", "note": "[IN-030, 3-[2-(6-Chloro-2-oxo-1,2-dihydro-indol-3-ylidenemethyl)-4-methyl-1H-pyrrol-3-yl]-propionic acid]", "values": [{"measurement": "pIC50", "setting": "EGFR protein", "value": 4.01}, {"measurement": "pIC50", "setting": "[1]; NIH3T3, PDGF 3.8 nM", "value": 5.10}]}
{"molecule": "Cc1c[nH]c(C=C2C(=O)Nc3ccccc32)c1CCC(=O)O", "note": "[IN-026, 3-[4-Methyl-2-(2-oxo-1,2-dihydro-indol-3-ylidenemethyl)-1H-pyrrol-3-yl]-propionic acid]", "values": [{"measurement": "pIC50", "setting": "EGFR protein", "value": "< 4.00"}, {"measurement": "pIC50", "setting": "[1]; NIH3T3, PDGF 3.8 nM", "value": 4.70}]}
{"molecule": "NC(=O)CCc1c(C=C2C(=O)Nc3ccccc32)[nH]c2c1CCCC2", "note": "[IN-010, 3-[2-(2-Oxo-1,2-dihydro-indol-3-ylidenemethyl)-4,5,6,7-tetrahydro-1H-indol-3-yl]-propionamide]", "values": [{"measurement": "pIC50", "setting": "[1]; NIH3T3, PDGF 3.8 nM", "value": 5.46}]}
{"molecule": "CN(C)CCCc1c(C=C2C(=O)Nc3ccccc32)[nH]c2c1CCCC2", "note": "[IN-009, 3-[3-(3-Dimethylamino-propyl)-4,5,6,7-tetrahydro-1H-indol-2-ylmethylene]-1,3-dihydro-indol-2-one]", "values": [{"measurement": "pIC50", "setting": "[1]; NIH3T3, PDGF 3.8 nM", "value": 5.38}]}
{"molecule": "COc1ccc2c(c1)NC(=O)C2=Cc1[nH]cc(C)c1CCC(=O)O", "note": "[IN-028, 3-[2-(6-Methoxy-2-oxo-1,2-dihydro-indol-3-ylidenemethyl)-4-methyl-1H-pyrrol-3-yl]-propionic acid]", "values": [{"measurement": "pIC50", "setting": "EGFR protein", "value": "< 4.00"}, {"measurement": "pIC50", "setting": "[1]; NIH3T3, PDGF 3.8 nM", "value": 5.06}]}
{"molecule": "CN(C)C(=O)CCc1c(C=C2C(=O)Nc3ccccc32)[nH]c2c1CCCC2", "note": "[IN-008, N,N-Dimethyl-3-[2-(2-oxo-1,2-dihydro-indol-3-ylidenemethyl)-4,5,6,7-tetrahydro-1H-indol-3-yl]-propionamide]", "values": [{"measurement": "pIC50", "setting": "[1]; NIH3T3, PDGF 3.8 nM", "value": 5.31}]}
{"molecule": "Cc1c[nH]c(C=C2C(=O)Nc3cccc(C)c32)c1CCC(=O)O", "note": "[IN-029, 3-[2-(4-Methyl-2-oxo-1,2-dihydro-indol-3-ylidenemethyl)-4-methyl-1H-pyrrol-3-yl]-propionic acid]", "values": [{"measurement": "pIC50", "setting": "EGFR protein", "value": "< 4.00"}, {"measurement": "pIC50", "setting": "[1]; NIH3T3, PDGF 3.8 nM", "value": 4.61}]}
{"molecule": "COc1ccc2c(c1)NC(=O)C2=Cc1[nH]c2c(c1CCC(=O)O)CCCC2", "note": "[IN-007, 3-[2-(6-Methoxy-2-oxo-1,2-dihydro-indol-3-ylidenemethyl)-4,5,6,7-tetrahydro-1H-indol-3-yl]-propionic acid]", "values": [{"measurement": "pIC50", "setting": "[1]; NIH3T3, PDGF 3.8 nM", "value": 5.52}]}
{"molecule": "Cc1c[nH]c(C=C2C(=O)Nc3ccc(Cl)cc32)c1CCC(=O)O", "note": "[IN-027, 3-[2-(5-Chloro-2-oxo-1,2-dihydro-indol-3-ylidenemethyl)-4-methyl-1H-pyrrol-3-yl]-propionic acid]", "values": [{"measurement": "pIC50", "setting": "EGFR protein", "value": "< 4.00"}]}
{"molecule": "O=C(O)CCc1c(C=C2C(=O)Nc3ccc(Br)cc32)[nH]c2c1CCCC2", "note": "[IN-003, 3-[2-(5-Bromo-2-oxo-1,2-dihydro-indol-3-ylidenemethyl)-4,5,6,7-tetrahydro-1H-indol-3-yl]-propionic acid]", "values": [{"measurement": "pIC50", "setting": "[1]; NIH3T3, PDGF 3.8 nM", "value": 5.85}]}
{"molecule": "Cc1c[nH]c(C=C2C(=O)Nc3ccc(Br)cc32)c1CCC(=O)O", "note": "[IN-031, 3-[2-(5-Bromo-2-oxo-1,2-dihydro-indol-3-ylidenemethyl)-4-methyl-1H-pyrrol-3-yl]-propionic acid]", "values": [{"measurement": "pIC50", "setting": "EGFR protein", "value": "< 4.00"}, {"measurement": "pIC50", "setting": "[1]; NIH3T3, PDGF 3.8 nM", "value": 5.07}]}
{"molecule": "O=C1Nc2ccccc2C1=Cc1[nH]c2c(c1CCC(=O)N1CCOCC1)CCCC2", "note": "[IN-011, 3-[3-(3-Morpholin-4-yl-3-oxo-propyl)-4,5 6,7-tetrahydro-1H-indol-2-ylmethylene]-1,3-dihydro-indol-2-one]", "values": [{"measurement": "pIC50", "setting": "[1]; NIH3T3, PDGF 3.8 nM", "value": 5.07}]}
{"molecule": "O=C(CCc1c(C=C2C(=O)Nc3ccccc32)[nH]c2c1CCCC2)NCCN1CCOCC1", "note": "[IN-013, N-(2-Morpholin-4-yl-ethyl)-3-[2-(2-oxo-1,2-dihydro-indol-3-ylidenemethyl)-4,5,6,7-tetrahydro-1H-indol-3-yl]-propionamide]", "values": [{"measurement": "pIC50", "setting": "[1]; NIH3T3, PDGF 3.8 nM", "value": 5.28}, {"measurement": "melting point", "value": "256 to 258", "unit": "°C"}]}
{"molecule": "CNC(=O)CCc1c(C=C2C(=O)Nc3ccccc32)[nH]c2c1CCCC2", "note": "[IN-012, N-Methyl-3-[2-(2-oxo-1,2-dihydro-indol-3-ylidenemethyl)-4,5,6,7-tetrahydro-1H-indol-3-yl]-propionamide]", "values": [{"measurement": "pIC50", "setting": "[1]; NIH3T3, PDGF 3.8 nM", "value": 5.41}]}
{"molecule": "O=C(O)CCc1c(C=C2C(=O)Nc3ccc(Cl)cc32)[nH]c2c1CCCC2", "note": "[IN-002, 3-[2-(5-Chloro-2-oxo-1,2-dihydro-indol-3-ylidenemethyl)-4,5.6,7-tetrahydro-1H-indol-3-yl]-propionic acid]", "values": [{"measurement": "pIC50", "setting": "[1]; PDGF […]", "value": 5.96}]}
{"molecule": "Cc1ccc2c(c1)C(=Cc1[nH]c3c(c1CCC(=O)O)CCCC3)C(=O)N2", "note": "[IN-005, 3-[2-(5-Methyl-2-oxo-1,2-dihydro-indol-3-ylidenemethyl)-4,5,6,7-tetrahydro-1H-indol-3-yl]-propionic acid]", "values": [{"measurement": "pIC50", "setting": "[1]; NIH3T3, PDGF 3.8 nM", "value": 4.85}]}
{"molecule": "Cc1cccc2c1C(=Cc1[nH]c3c(c1CCC(=O)O)CCCC3)C(=O)N2", "note": "[IN-004, 3-[2-(4-Methyl-2-oxo-1,2-dihydro-indol-3-ylidenemethyl)-4,5,6,7-tetrahydro-1H-indol-3-yl]-propionic acid]", "values": [{"measurement": "pIC50", "setting": "[1]; NIH3T3, PDGF 3.8 nM", "value": 4.87}]}
{"molecule": "O=C(O)CCc1c(C=C2C(=O)Nc3ccccc32)[nH]c2c1CCCC2", "note": "[IN-001, 3-[2-(2-Oxo-1,2-dihydro-indol-3-ylidenemethyl)-4,5,6,7-tetrahydro-1H-indol-3-yl]-propionic acid]", "values": [{"measurement": "pIC50", "setting": "[1]; NIH3T3, PDGF 3.8 nM", "value": 5.54}, {"measurement": "melting point", "value": "263 to 265", "unit": "°C"}]}
